Laboratory results as given in patent US11857661B2, “Anti-dandruff composition” (Kancor Ingredients Ltd, priority 2018, dated 2024).
Each block holds one compound with its values, some of them ahead of it.

Legend:
[1] = test system: Malassezia furfur CBS 1878; assay: Minimum inhibitory concentration, broth dilution; format: cell-based; conditions: M. furfur CBS 1878; for minimum inhibition concentration (MIC) value: classic broth dilution protocol
Description: Inhibition is defined as giving less than 20% growth compared to a control, as determined by spectrophotometric optical density (OD) reading at 620 nm, using the formula % of growth=[(ODproduct−OCabsorbance-control)]/(ODpositive growth-control).
(§1) As noted above, the anti-dandruff active portion of the anti-dandruff composition comprises (or consists essentially of) a combination of at least two of the three described anti-dandruff actives (i.e., the punicalagin composition, the first monoterpenoid composition, and the second monoterpenoid composition). The combinations are based on the additive or synergistic relationship between the individual anti-dandruff actives. Inhibition testing of the individual anti-dandruff actives to determine MIC levels followed the principles and general methods disclosed in C. Lens-Lisbonne, et al. “Methods for the evaluation of antibacterial activity of essential oils: applications to essences of thyme and cinnamon,” J. Pharm. Belg., 1987, 42(5): 297-302; and C. Lisbonne “Evaluation of bacteriostatic activity of essential oils and their components,” Doctoral Thesis, Pharmacy Faculty, Marseille, F R 1988. Interactions of bi-component mixtures (Fractional Inhibitory Concentration) were evaluated in accordance with the method described by J. L. Pons et al., “Evaluation of antimicrobial interactions between chlorhexidine, quaternary ammonium compounds, preservatives and excipients,” J. Appl. Bacteriol., 1992, 73, 395-400, to assess their additive or synergistic effects.
Briefly, as is commonly known by those skilled in the art of the instant disclosure, assessment of Malassezia furfur inhibition may be accomplished following standard and accepted practices, such as that described in U.S. Patent Application Publication No. 2008/0249186. Accordingly, an external testing laboratory performed a series of against Malassezia furfur to evaluate antimicrobial activity and interactions (see Lens, et al. “Methods for the evaluation of antimicrobial activity of essential oils,” J. Pharm. Belg. 1987). Inhibitory activity testing was conducted by mixing 100 μl of various dilutions of the test product at a double concentration with an equal volume (100 μl) of a double strength Difco™ Sabouraud dextrose broth supplemented with olive oil, inoculated between 2 to 6×10^5 cfu/mL. After incubation (24-72 hours, at 32.5° C.±2.5° C.), a spectrophotometric reading at 620 nm is performed and the percentage of growth calculated from optical density (OD) measuring each concentration with respect to a positive growth control according to the following equation: % of growth=[ODproduct−ODabsorbance-control)]/(ODpositive growth-control).
Each concentration was tested in triplicate, and two assays were performed per product. The positive growth control consisted of 100 μl 1% agar solution mixed with 100 μl of inoculated broth.

[2] = test system: Malassezia furfur CBS 1878; assay: Association testing, checkerboard titration (FIC index); format: cell-based; conditions: M. furfur CBS 1878; sample B alone
Description: as §1
Study of Associations. After obtaining the MIC levels for each of the anti-dandruff actives by broth dilution method, a checkerboard titration technique was performed to assess the synergistic activity of the combinations. In order to evaluate the activity of the combinations of the anti-dandruff actives, a Fractional Inhibitory Concentration index (FICindex) was calculated: (FICindex)=FIC^A+FIC^B, where FIC^A and FIC^B represent the minimum concentrations inhibiting the M. furfur growth for anti-dandruff actives A and B, respectively. And FIC^A=MIC^Acombination/MIC^Aalone, and FIC^B=MIC^Bcombination/MIC^Balone.] A mean FIC index was calculated based on the following equation: FICindex=FIC^A+FIC^B. Synergism is defined as FIC≤0.75; additive as FIC˜1; indifference as 1<FIC≤2; and antagonism is defined as FIC>2, as reported by J. L. Pons; N. Bonnaveiro; J. Chevalier; and A. Crémieux, “Evaluation of antimicrobial interactions between chlorhexidine, quaternary ammonium compounds, preservatives and excipients,” J. Appl. Bacteriology, 1992, 73(5), 395-400.

Compound: O=c1oc2c(O)c(O)cc3c(=O)oc4c(O)c(O)cc1c4c23 [EA, Ellagic Acid]
- Minimum Inhibitory Concentration, Test 1 [1]: 0.5%
- Minimum Inhibitory Concentration, Test 2 [1]: 0.5%
- minimum inhibition concentration (MIC) value [1]: 0.5%
- MIC B Alone % [2]: 0.5%

Compound: Punicalagins A&B
- Minimum Inhibitory Concentration, Test 1 [1]: 0.05%
- Minimum Inhibitory Concentration, Test 2 [1]: 0.05%
- minimum inhibition concentration (MIC) value [1]: 0.05%
- MIC B Alone % [2]: 0.05%

Compound: CC1=CCC(C(C)C)=CC1 [GTP, gamma-terpinene]
- minimum inhibition concentration (MIC) value [1]: > 1%
- MIC B Alone % [2]: >1%

Now from value to compound:

- minimum inhibition concentration (MIC) value [1]: 0.05%
- MIC B Alone % [2]: 0.05%
Compound: Cc1ccc(C(C)C)c(O)c1 [TML, thymol]

- minimum inhibition concentration (MIC) value [1]: 0.5%
- MIC B Alone % [2]: 0.5%
Compound: Cc1ccc(C(C)C)cc1 [PCY, para-cymene]
